Article PMC3047710 (Chemmedchem, 2010)

Legend:
Format in all cases: biochemical
[1] = biological target: T1, TbDHFR (T. brucei dihydrofolate reductase) (Trypanosoma brucei, UniProt Q27783); test: DHFR inhibition assay
[2] = biological target: T2, HsDHFR (human DHFR) (Homo sapiens, UniProt P00374); test: DHFR inhibition assay
T2 sequence (P00374 1-187): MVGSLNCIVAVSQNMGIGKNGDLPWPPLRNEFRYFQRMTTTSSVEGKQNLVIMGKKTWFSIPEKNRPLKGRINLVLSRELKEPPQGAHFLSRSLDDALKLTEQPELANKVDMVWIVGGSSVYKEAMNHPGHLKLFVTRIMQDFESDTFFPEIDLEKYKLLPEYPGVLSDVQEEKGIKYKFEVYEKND

[3] = biological target: T1, TbDHFR (T. brucei dihydrofolate reductase); test: DHFR inhibition assay; conditions: unreliable: sample contaminated with ~25% of compound 33
[4] = biological target: T2, HsDHFR (human DHFR); test: DHFR inhibition assay; conditions: unreliable: sample contaminated with ~25% of compound 33
[5] = biological target: T3, TbPTR1 (T. brucei pteridine reductase 1) (Trypanosoma brucei, UniProt O76290); test: HPLC-based PTR1 assay
T3 sequence (O76290 1-268): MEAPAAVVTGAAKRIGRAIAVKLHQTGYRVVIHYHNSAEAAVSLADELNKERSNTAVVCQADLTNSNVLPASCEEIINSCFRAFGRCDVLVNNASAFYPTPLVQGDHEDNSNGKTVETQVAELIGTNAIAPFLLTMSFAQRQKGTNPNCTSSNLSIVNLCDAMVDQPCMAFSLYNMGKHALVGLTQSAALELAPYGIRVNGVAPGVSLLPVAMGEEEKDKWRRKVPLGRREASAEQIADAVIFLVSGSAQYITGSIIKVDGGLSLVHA

[6] = biological target: T4, endogenous PTR1 in clarified T. brucei lysate (Trypanosoma brucei, UniProt O76290); test: HPLC-based PTR1 assay
T4 sequence (O76290 1-268): T3 sequence (O76290 1-268)

T1 sequence (Q27783 whole entry): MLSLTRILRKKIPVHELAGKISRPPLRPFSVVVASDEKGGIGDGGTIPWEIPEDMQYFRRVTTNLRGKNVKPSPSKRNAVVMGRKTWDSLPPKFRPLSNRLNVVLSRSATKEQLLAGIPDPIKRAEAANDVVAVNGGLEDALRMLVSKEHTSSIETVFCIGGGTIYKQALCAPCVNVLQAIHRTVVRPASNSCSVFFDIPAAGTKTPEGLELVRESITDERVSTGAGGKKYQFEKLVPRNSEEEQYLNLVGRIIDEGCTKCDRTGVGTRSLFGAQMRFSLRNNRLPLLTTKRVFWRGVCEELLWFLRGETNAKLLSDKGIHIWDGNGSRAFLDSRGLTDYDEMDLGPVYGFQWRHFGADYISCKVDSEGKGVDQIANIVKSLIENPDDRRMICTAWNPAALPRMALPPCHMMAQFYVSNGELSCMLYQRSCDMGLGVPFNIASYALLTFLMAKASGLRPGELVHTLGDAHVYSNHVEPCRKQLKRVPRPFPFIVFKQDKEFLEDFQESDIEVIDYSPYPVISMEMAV

| IC50 [1] [µM] | IC50 [2] [µM] | TbDHFR IC50 [3] [µM] | HsDHFR IC50 [4] [µM] | IC50 [5] [µM] | IC50 [6] [µM] | Structure (SMILES) |
| --- | --- | --- | --- | --- | --- | --- |
| > 30 | > 30 |  |  |  |  | Cc1cc2nc(N)n(Cc3ccc(Cl)c(Cl)c3)c2cc1C [compound 34] |
| > 30 | > 30 |  |  |  |  | Nc1nc2c(-c3ccccc3)cccc2n1Cc1ccc(Cl)c(Cl)c1 [compound 27] |
| > 30 | > 50 |  |  |  |  | CCCOc1cccc2nc(N)n(Cc3ccc(Cl)c(Cl)c3)c12 [compound 30] |
| > 50 | > 50 |  |  |  |  | Nc1nc2c(OCc3ccccc3)cccc2n1Cc1ccc(Cl)c(Cl)c1 [compound 26] |
| > 30 | > 50 |  |  |  |  | Nc1nc2c(Cl)cccc2n1Cc1ccc(Cl)c(Cl)c1 [compound 24] |
| > 30 | > 50 |  |  |  |  | Nc1nc2cccc(Cl)c2n1Cc1ccc(Cl)c(Cl)c1 [compound 29] |
|  |  | > 30 | > 50 |  |  | COc1cccc2c1nc(N)n2Cc1ccc(Cl)c(Cl)c1 [compound 28] |
| > 50 | > 50 |  |  | 0.00099 ± 0.00013 | 0.00088 ± 0.00013 | Nc1nc2cccc(-c3ccccc3)c2n1Cc1ccc(Cl)c(Cl)c1 [compound 32] |
| > 50 | > 50 |  |  |  |  | Nc1nc2cccc(OCc3ccccc3)c2n1Cc1ccc(Cl)c(Cl)c1 [compound 31] |
| > 30 | > 50 |  |  |  |  | CCCOc1cccc2c1nc(N)n2Cc1ccc(Cl)c(Cl)c1 [compound 25] |
| > 50 | > 50 |  |  |  |  | Nc1nc2ccccc2n1Cc1ccc(Cl)c(Cl)c1 [compound 11] |
| > 30 | > 50 |  |  |  |  | COc1cccc2nc(N)n(Cc3ccc(Cl)c(Cl)c3)c12 [compound 33] |
